Here are results for three compounds from the NIST ThermoML archive (doi:10.1021/acs.jced.6b00949).

The nature of data set [1]: refractive index (Na D-line) (dimensionless). Particulars: 293.15 K; 101.33 kPa; Liquid; Standard Abbe refractometry.
The conditions of data set [2]: 293.15 K; 101.3 kPa; Liquid; Vibrating tube method.

Numbers after ± are expanded uncertainties.

As for `CC(=O)OCC(C)C` [2-methylpropyl ethanoate], the refractive index in data set [1] came to 1.3902 ± 0.0025. The mass density in data set [2] is 873.4 ± 1.6 kg/m3.

Turning to `CCO` [ethanol], the refractive index in data set [1] is given as 1.3616 ± 0.0025. Moreover, the mass density in data set [2] is 789.2 ± 1.6 kg/m3.

As for `CO` [methanol], in data set [1], the refractive index is on record as 1.3285 ± 0.0025. The mass density in data set [2] was 792.1 ± 1.6 kg/m3.

The term refractive index denotes a measure of how strongly the sample bends light. A word on the mass density: it is mass per unit of volume.
